Source: patent publication US11077090B2, “Compounds and compositions and uses thereof” (Sunovion Pharmaceuticals Inc., priority 2016, dated 2021)

Tested on: compound-treated mice
Experiment: Neuropharmacological assay (SmartCube): behavioral activity signature and minimal effective dose
Type: in vivo
Settings: for minimal effective dose: Mus musculus, ip, MED = dose having 50% or more total activity, read-out: Potency: minimal effective dose (MED), binned; for AD: ADHD (probability of activity signature) / AG: analgesic (probability of activity signature) / AX: anxiolytic (probability of activity signature) / CE: cognitive enhancer (probability of activity signature) / DP: anti-depressant (probability of activity signature) / MS: mood stabilizer (probability of activity signature) / PS: anti-psychotic (probability of activity signature) / SD: sedative hypnotic (probability of activity signature) / UN: uncharacterized CNS activity (probability of activity signature): i.p. 15 min before test, most efficacious dose(s)
Procedure, shortened: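 Mice dosed i.p. 15 min before test, compound in N-methyl-2-pyrrolidone/PEG/propylene glycol, 3 doses; video-captured behavior matched to reference-drug signatures, giving per-class probabilities at most efficacious dose. MED from doses typically 0.3–30 mpk, defined as lowest dose with ≥50% total activity.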

Structure (SMILES) | minimal effective dose [mg/kg] | AD: ADHD (probability of activity signature) | AG: analgesic (probability of activity signature) | AX: anxiolytic (probability of activity signature) | CE: cognitive enhancer (probability of activity signature) | DP: anti-depressant (probability of activity signature) | MS: mood stabilizer (probability of activity signature) | PS: anti-psychotic (probability of activity signature) | SD: sedative hypnotic (probability of activity signature) | UN: uncharacterized CNS activity (probability of activity signature)
Cc1cccc2c1[C@@H](N)[C@H](C)OC2 (single isomer, unassigned) [Example 168] | 3 to 10 | + (LOQ ≤ + <5%) | + (LOQ ≤ + <5%) | ++ (5% ≤ ++ <25%) | ++ (5% ≤ ++ <25%) | ++ (5% ≤ ++ <25%) | + (LOQ ≤ + <5%) | +++ (25% ≤ +++ <50%) | + (LOQ ≤ + <5%) | ++++ (50% ≤ ++++)
Cc1cccc2c1[C@H](N)[C@H](C)OC2 (single isomer, unassigned) [Example 169] | < 3 | + (LOQ ≤ + <5%) | ++ (5% ≤ ++ <25%) | ++ (5% ≤ ++ <25%) | ++ (5% ≤ ++ <25%) | ++ (5% ≤ ++ <25%) | + (LOQ ≤ + <5%) | ++ (5% ≤ ++ <25%) | ++ (5% ≤ ++ <25%) | ++++ (50% ≤ ++++)
COc1ccc2c(c1)[C@H](N)[C@@H](C)OC2 (single isomer, unassigned) [Example 171] | < 3 | + (LOQ ≤ + <5%) | ++ (5% ≤ ++ <25%) | +++ (25% ≤ +++ <50%) | ++ (5% ≤ ++ <25%) | ++ (5% ≤ ++ <25%) | + (LOQ ≤ + <5%) | ++ (5% ≤ ++ <25%) | ++ (5% ≤ ++ <25%) | +++ (25% ≤ +++ <50%)
COc1ccc2c(c1)[C@@H](N)[C@H](C)OC2 (single isomer, unassigned) [Example 172] | 10 to 30 | + (LOQ ≤ + <5%) | ++ (5% ≤ ++ <25%) | ++ (5% ≤ ++ <25%) | + (LOQ ≤ + <5%) | + (LOQ ≤ + <5%) | + (LOQ ≤ + <5%) | ++ (5% ≤ ++ <25%) | + (LOQ ≤ + <5%) | +++ (25% ≤ +++ <50%)
COc1ccc2c(c1)[C@H](N)[C@H](C)OC2 (single isomer, unassigned) [Example 173] | 3 to 10 | + (LOQ ≤ + <5%) | ++ (5% ≤ ++ <25%) | ++ (5% ≤ ++ <25%) | ++ (5% ≤ ++ <25%) | + (LOQ ≤ + <5%) | + (LOQ ≤ + <5%) | + (LOQ ≤ + <5%) | + (LOQ ≤ + <5%) | ++++ (50% ≤ ++++)
COc1ccc2c(c1)[C@@H](N)[C@@H](C)OC2 (single isomer, unassigned) [Example 174] | 3 to 10 | + (LOQ ≤ + <5%) | ++ (5% ≤ ++ <25%) | ++ (5% ≤ ++ <25%) | ++ (5% ≤ ++ <25%) | ++ (5% ≤ ++ <25%) | + (LOQ ≤ + <5%) | ++ (5% ≤ ++ <25%) | + (LOQ ≤ + <5%) | ++++ (50% ≤ ++++)
